From patent US20250163061A1 (Bala Therapeutics, Inc., priority 2021, published 2025)

Legend:
Format in all cases: cell-based
MV4-11 = MV4-11 cellular growth inhibition assay (CellTiter-Glo); details: Homo sapiens, 168 h, MV4-11 cells, 7 days of incubation
Protocol: (§1) HEK293 (Institute of Cytology Russian Academy of Science), MV4-11 (ATCC, CRL-9591), MOLM-13 (AcceGen, ABC-TC517S) were seeded at a density of 500 cells per well (HEK293) and 2000 cells per well (MV4-11, MOLM-13) in a 384-well clear bottom plate (Greiner Cat #781090) in 45 μl total volume of DMEM (PanEco, Cat #C420, Russia) or RPMI (PanEco, Cat #C330, Russia) with 10% FBS (HyClone Cat #SV30160.03). HEK293 were allowed to adhere overnight at 37° C., 5% CO2. 500× compounds solutions in DMSO (Sigma Cat #D2650) were prepared into Cmpnds plate (Diamond Well Plate, Axigen, Cat #P-384-120SQ-C-S) and DMSO only control was included. 1 μl of 500× compounds (Cmpnds plate) was added to 49 μl of culture medium into Dilution plate (Diamond Well Plate, Axigen, Cat #P-384-120SQ-C-S), mixed and then 5 μl of 10× compounds solutions were transferred to cells followed by centrifugation at 100 g for 1 min. Final DMSO concentration was 0.2%. After 3 days of incubation, 10 μl of 1× compounds were added to cells. After 7 days of incubation, 12 μl of CellTiter-Glo (Promega, CAT #G7572) were added to the cells, plate was centrifuged at 100 g for 1 min and luminescence signal was measured using Microplate Reader (CLARIOStar).

MOLM-13 = MOLM-13 cellular growth inhibition assay (CellTiter-Glo); details: Homo sapiens, 168 h, MOLM-13 cells, 7 days of incubation
Protocol: as §1

[1] = HEK293 cellular growth inhibition assay (CellTiter-Glo); details: human, HEK293 cells, 7 days of incubation
Protocol: as §1

Compound | CC50 (MV4-11) [nM] | CC50 (MOLM-13) [nM] | CC50 at 7 days [1] [nM]
CCS(=O)(=O)N1CCN([C@H](C)Cn2c(C#N)cc3c(C)c(CN4CCC5(CC4)CN(c4ncnc6ccc(CC(F)(F)F)cc46)C5)ccc32)C[C@@H]1C [Compound 25, 1-[(2R)-2-[(3S)-4-ethylsulfonyl-3-methyl-piperazin-1-yl]propyl]-4-methyl-5-[[2-[6-(2,2,2-trifluoroethyl)quinazolin-4-yl]-2,7-diazaspiro[3.5]nonan-7-yl]methyl]indole-2-carbonitrile] | 100 to 500 | 500 to 1000 | 2000 to 5000
Cc1c(CN2CCC3(CC2)CN(c2ncnc4ccc(CC(F)(F)F)cc24)C3)ccc2c1cc(C#N)n2C[C@@H](C)N1CCN(S(C)(=O)=O)[C@@H](C)C1 [Compound 27, 4-methyl-1-[(2R)-2-[(3S)-3-methyl-4-methylsulfonyl-piperazin-1-yl]propyl]-5-[[2-[6-(2,2,2-trifluoroethyl)quinazolin-4-yl]-2,7-diazaspiro[3.5]nonan-7-yl]methyl]indole-2-carbonitrile] | ≤ 100 | 100 to 500 | 5000 to 10000
Cc1c(CN2CCC3(CC2)CN(c2ncnc4ccc(CC(F)(F)F)cc24)C3)ccc2c1cc(C#N)n2C[C@H]1CC[C@H](NS(C)(=O)=O)CC1 [Compound 40, N-(trans-4-{[2-Cyano-4-methyl-5-({2-[6-(2,2,2-trifluoroethyl)quinazolin-4-yl]-2,7-diazaspiro[3.5]non-7-yl}methyl)-1H-indol-1-yl]methyl}cyclohexyl)methanesulfonamide] | 100 to 500 | 1000 to 5000 | 10000 to 20000
Cc1c(CN2CCC3(CC2)CN(c2ncnc4ncc(CC(F)(F)F)nc24)C3)ccc2c1cc(C#N)n2CC(C)N1CCN(S(C)(=O)=O)CC1 (stereo not drawn) [Compound 42, 4-Methyl-1-[2-(4-methylsulfonylpiperazin-1-yl)propyl]-5-[[2-[6-(2,2,2-trifluoroethyl)pteridin-4-yl]-2,7-diazaspiro[3.5]nonan-7-yl]methyl]indole-2-carbonitrile] | 100 to 500 | 100 to 500 | ≤ 2000
Cc1c(CN2CCC3(CC2)CN(c2ncnc4ccc(CC(F)(F)F)cc24)C3)ccc2c1cc(C#N)n2CCCCN1CCN(S(C)(=O)=O)CC1 [Compound 44, 4-Methyl-1-{4-[4-(methylsulfonyl)piperazin-1-yl]butyl}-5-({2-[6-(2,2,2-trifluoroethyl)quinazolin-4-yl]-2,7-diazaspiro[3.5]non-7-yl}methyl)-1H-indole-2-carbonitrile] | 1000 to 5000 | > 5000 | 2000 to 5000
Cc1c(CN2CCC3(CC2)CN(c2ncnc4cnc(CC(F)(F)F)cc24)C3)ccc2c1cc(C#N)n2CC(C)N1CCN(S(C)(=O)=O)CC1 (stereo not drawn) [Compound 45, 4-Methyl-1-{2-[4-(methylsulfonyl)piperazin-1-yl]propyl}-5-({2-[6-(2,2,2-trifluoroethyl)pyrido[3,4-d]pyrimidin-4-yl]-2,7-diazaspiro[3.5]non-7-yl}methyl)-1H-indole-2-carbonitrile] | 100 to 500 | 1000 to 5000 | 5000 to 10000
Cc1c(CN2CCC3(CC2)CN(c2ncnc4ccc(CC(F)(F)F)cc24)C3)ccc2c1cc(C#N)n2CC1CNC(=O)C1 (stereo not drawn) [Compound 51, 4-Methyl-1-[(5-oxopyrrolidin-3-yl)methyl]-5-({2-[6-(2,2,2-trifluoroethyl)quinazolin-4-yl]-2,7-diazaspiro[3.5]non-7-yl}methyl)-1H-indole-2-carbonitrile] | 100 to 500 | 1000 to 5000 | 2000 to 5000
CC(=O)NC12CC(Cn3c(C#N)cc4c(C)c(CN5CCC6(CC5)CN(c5ncnc7ccc(CC(F)(F)F)cc57)C6)ccc43)(C1)C2 [Compound 59, N-[3-[[2-Cyano-4-methyl-5-[[2-[6-(2,2,2-trifluoroethyl)quinazolin-4-yl]-2,7-diazaspiro[3.5]nonan-7-yl]methyl]indol-1-yl]methyl]-1-bicyclo[1.1.1]pentanyl]acetamide] | ≤ 100 | ≤ 100 | 2000 to 5000
CNC(=O)NC12CC(Cn3c(C#N)cc4c(C)c(CN5CCC6(CC5)CN(c5ncnc7ccc(CC(F)(F)F)cc57)C6)ccc43)(C1)C2 [Compound 60, 1-[3-[[2-Cyano-4-methyl-5-[[2-[6-(2,2,2-trifluoroethyl)quinazolin-4-yl]-2,7-diazaspiro[3.5]nonan-7-yl]methyl]indol-1-yl]methyl]-1-bicyclo[1.1.1]pentanyl]-3-methyl-urea] | ≤ 100 | ≤ 100 | 2000 to 5000
Cc1c(CN2CCC3(CC2)CN(c2ncnc4ccc(CC(F)(F)F)cc24)C3)ccc2c1cc(C#N)n2CC12CC(NS(N)(=O)=O)(C1)C2 [Compound 61, 4-[7-[[2-cyano-4-methyl-1-[[3-(sulfamoylamino)-1-bicyclo[1.1.1]pentanyl]methyl]indol-5-yl]methyl]-2,7-diazaspiro[3.5]nonan-2-yl]-6-(2,2,2-trifluoroethyl)quinazoline] | ≤ 100 | 100 to 500 | 5000 to 10000
C=CC(=O)N1CCN(C(C)Cn2c(C#N)cc3c(C)c(CN4CCC5(CC4)CN(c4ncnc6ccc(CC(F)(F)F)cc46)C5)ccc32)CC1 (stereo not drawn) [Compound 63, 1-[2-(4-Acryloylpiperazin-1-yl)propyl]-4-methyl-5-({2-[6-(2,2,2-trifluoroethyl)quinazolin-4-yl]-2,7-diazaspiro[3.5]non-7-yl}methyl)-1H-indole-2-carbonitrile] | 100 to 500 | 100 to 500 | 2000 to 5000
C=CC(=O)N1CCN(CCCCn2c(C#N)cc3c(C)c(CN4CCC5(CC4)CN(c4ncnc6ccc(CC(F)(F)F)cc46)C5)ccc32)CC1 [Compound 65, 1-[4-(4-Acryloylpiperazin-1-yl)butyl]-4-methyl-5-({2-[6-(2,2,2-trifluoroethyl)quinazolin-4-yl]-2,7-diazaspiro[3.5]non-7-yl}methyl)-1H-indole-2-carbonitrile] | 100 to 500 | 1000 to 5000 | ≤ 2000
C=CC(=O)N1CCN(CCCn2c(C#N)cc3c(C)c(CN4CCC5(CC4)CN(c4ncnc6ccc(CC(F)(F)F)cc46)C5)ccc32)CC1 [Compound 66, 4-methyl-1-[3-(4-prop-2-enoylpiperazin-1-yl)propyl]-5-[[2-[6-(2,2,2-trifluoroethyl)quinazolin-4-yl]-2,7-diazaspiro[3.5]nonan-7-yl]methyl]indole-2-carbonitrile] | 100 to 500 | 100 to 500 | 2000 to 5000
Cc1c(CN2CCC3(CC2)CN(c2ncnc4ccc(CC(F)(F)F)nc24)C3)ccc2c1cc(C#N)n2CC(C)N1CCN(S(C)(=O)=O)CC1 (stereo not drawn) [Compound 67, 4-Methyl-1-{2-[4-(methylsulfonyl)piperazin-1-yl]propyl}-5-({2-[6-(2,2,2-trifluoroethyl)pyrido[3,2-d]pyrimidin-4-yl]-2,7-diazaspiro[3.5]non-7-yl}methyl)-1H-indole-2-carbonitrile] | 100 to 500 | 100 to 500 | 5000 to 10000
Cc1c(CN2CCC3(CC2)CN(c2ncnc4ccc(CC(F)(F)F)cc24)C3)ccc2[nH]c(C#N)cc12 [Compound 68, 4-Methyl-5-({2-[6-(2,2,2-trifluoroethyl)quinazolin-4-yl]-2,7-diazaspiro[3.5]non-7-yl}methyl)-1H-indole-2-carbonitrile] | 100 to 500 | 500 to 1000 | 2000 to 5000
